The values below come from patent US9206130B2, “Quinoline derivatives as AXL kinase inhibitors” (Max-Planck-Gesellschaft zur Förderung der Wissenschaften …, priority 2008, dated 2015).

Series [1] deals with T1, wild type AXL (wtAXL) receptor tyrosine kinase (Homo sapiens, UniProt P30530).
T1 construct: WtAXL cDNA was cloned into vector pLXSN(ESK) and transfected into Phoenix E packaging cells; expressed in transfected cells; host or cells: NIH3T3 N7 mouse fibroblasts, retrovirally infected (clone 22)
T1 sequence (P30530 26-894): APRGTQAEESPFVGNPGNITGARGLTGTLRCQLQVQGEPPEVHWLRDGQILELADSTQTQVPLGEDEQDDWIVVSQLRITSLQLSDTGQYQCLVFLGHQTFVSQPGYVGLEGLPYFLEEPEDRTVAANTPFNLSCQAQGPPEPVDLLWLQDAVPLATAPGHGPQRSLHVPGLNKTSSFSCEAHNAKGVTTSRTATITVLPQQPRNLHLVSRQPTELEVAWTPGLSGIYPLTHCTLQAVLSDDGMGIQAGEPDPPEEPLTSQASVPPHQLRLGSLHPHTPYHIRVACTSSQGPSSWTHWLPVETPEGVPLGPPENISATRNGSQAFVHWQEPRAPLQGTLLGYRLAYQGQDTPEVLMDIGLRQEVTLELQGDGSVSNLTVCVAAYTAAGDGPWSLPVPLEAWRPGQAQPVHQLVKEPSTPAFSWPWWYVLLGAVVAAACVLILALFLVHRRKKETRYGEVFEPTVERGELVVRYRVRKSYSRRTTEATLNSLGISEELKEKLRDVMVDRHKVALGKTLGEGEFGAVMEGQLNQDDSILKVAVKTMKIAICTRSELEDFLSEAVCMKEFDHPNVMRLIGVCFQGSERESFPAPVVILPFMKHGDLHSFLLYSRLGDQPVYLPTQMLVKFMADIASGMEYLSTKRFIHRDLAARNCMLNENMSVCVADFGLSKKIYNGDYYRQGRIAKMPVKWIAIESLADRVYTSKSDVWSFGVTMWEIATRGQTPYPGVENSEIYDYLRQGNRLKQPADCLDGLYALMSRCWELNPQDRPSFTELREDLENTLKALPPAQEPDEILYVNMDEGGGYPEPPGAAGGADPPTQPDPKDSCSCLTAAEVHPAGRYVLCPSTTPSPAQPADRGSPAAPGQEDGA
The experiment in a line: NIH-3T3-AXL cellular tyrosine kinase assay (inhibition of AXL phosphorylation). It counts as cell-based. The settings on record: AXL phosphorylation in NIH-3T3-AXL (clone 22) cells, serum-depleted, 2 h with compound, immunoprecipitation / anti-phosphotyrosine blot. An outline of the steps:
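Compound inhibition of AXL autophosphorylation was read by 4G10 immunoblot after anti-AXL immunoprecipitation from lysates. Cells: NIH3T3 lines stably carrying retroviral wild-type human AXL, treated 2 h with compound dilution series.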

Consider `Cc1cc(Oc2ccc(NS(=O)(=O)c3cccc(-c4ccccc4)c3)c(F)c2)c2cccc(C(F)(F)F)c2n1` [Example C02, Biphenyl-3-sulfonic acid [2-fluoro-4-(2-methyl-8-trifluoromethyl-quinolin-4-yloxy)-phenyl]-amide], for which the melting point was 187 to 188 °C. The IC50 in series [1] was more than 10 µM.

Compound `COc1cc2nccc(Oc3ccc(NS(=O)(=O)c4ccccc4C(F)(F)F)c(C)c3)c2cc1OC` [Example A113, N-[4-(6,7-Dimethoxy-quinolin-4-yloxy)-2-methyl-phenyl]-2-trifluoromethyl-benzenesulfonamide] displayed a melting point of 254 to 257 °C. Besides, the IC50 in series [1] is more than 3 µM.

As to `COc1cc2nccc(Oc3ccc(NS(=O)(=O)c4ccc5c(c4)CC(=O)N5C)c(F)c3)c2cc1OC` [Example A137, 1-Methyl-2-oxo-2,3-dihydro-1H-indole-5-sulfonic acid [4-(6,7-dimethoxy-quinolin-4-yloxy)-2-fluoro-phenyl]-amide], the melting point was in the range of 195 to 197 °C. For the same compound, the IC50 in series [1] was more than 10 µM.

`COc1cc2nccc(Oc3ccc(NS(=O)(=O)c4csc5ccccc45)cc3OC)c2cc1OC` [Example A144, Benzo[b]thiophene-3-sulfonic acid [4-(6,7-dimethoxy-quinolin-4-yloxy)-3-methoxy-phenyl]-amide] had a melting point of 144 to 146 °C. Besides, in series [1], the IC50 was more than 10 µM.

Turning to `COc1cc2nccc(Oc3ccc(NS(=O)(=O)c4ccc(Br)cc4OC(F)(F)F)c(F)c3)c2cc1OC` [Example A147, 4-Bromo-N-[4-(6,7-dimethoxy-quinolin-4-yloxy)-2-fluoro-phenyl]-2-trifluoromethoxy-benzenesulfonamide], the melting point was 227 to 229 °C. Moreover, the IC50 in series [1] is more than 3 µM.

`COc1cc2nccc(Oc3ccc(NS(=O)(=O)c4cccc(Oc5ccccc5)c4)c(F)c3)c2cc1OC` [Example A30, N-[4-(6,7-Dimethoxy-quinolin-4-yloxy)-2-fluoro-phenyl]-3-phenoxy-benzenesulfonamide] had a melting point of 179 to 180 °C. In series [1], the IC50 was 0.63 µM.

The compound `COc1cc2c(Oc3ccc(NS(=O)(=O)c4ccccc4OC(F)(F)F)cc3F)ccnc2cc1OCCN1CCOCC1` [Example D06, N-{3-Fluoro-4-[6-methoxy-7-(2-morpholin-4-yl-ethoxy)-quinolin-4-yloxy]-phenyl}-2-trifluoromethoxy-benzenesulfonamide] came in with a melting point of 185 to 187 °C. Also, the IC50 in series [1] was 0.069 µM.

`COc1cc2nccc(Oc3ccc(NS(=O)(=O)c4ccc(Br)s4)c(F)c3)c2cc1OC` [Example A29, 5-Bromo-thiophene-2-sulfonic acid [4-(6,7-dimethoxy-quinolin-4-yloxy)-2-fluoro-phenyl]-amide] displayed a melting point of 207 to 209 °C. In series [1], the IC50 came out at 2.3 µM.

`COc1cc2nccc(Oc3ccc(NS(=O)(=O)c4cccc5ccccc45)c(F)c3)c2cc1OC` [Example A17, Naphthalene-1-sulfonic acid [4-(6,7-dimethoxy-quinolin-4-yloxy)-2-fluoro-phenyl]-amide] registered a melting point of 243 to 245 °C. For the same compound, in series [1], the IC50 was 0.89 µM.

In turn, `COc1cc(S(=O)(=O)Nc2ccc(Oc3ccnc4cc(OC)c(OC)cc34)cc2C)ccc1F` [Example A154, N-[4-(6,7-Dimethoxy-quinolin-4-yloxy)-2-methyl-phenyl]-4-fluoro-3-methoxy-benzenesulfonamide] came in with a melting point of 228 to 229 °C. In series [1], the 50% inhibitory concentration (IC50) was more than 10 µM.

The compound `COc1cc2nccc(Oc3ccc(NS(=O)(=O)c4cc(C)ccc4NC(C)=O)cc3)c2cc1OC` [Example A65, N-{2-[4-(6,7-Dimethoxy-quinolin-4-yloxy)-phenylsulfamoyl]-4-methyl-phenyl}-acetamide] displayed a melting point of 134 to 136 °C. In series [1], the IC50 is more than 10 µM.

`COc1cc2nccc(Oc3ccc(NS(=O)(=O)c4ccc(Br)c(Cl)c4)c(F)c3)c2cc1OC` [Example A60, 4-Bromo-3-chloro-N-[4-(6,7-dimethoxy-quinolin-4-yloxy)-2-fluoro-phenyl]-benzenesulfonamide] showed a melting point of 231 to 232 °C. In addition, the IC50 in series [1] is 0.8 µM.

Compound `COc1cc2nccc(Oc3ccc(NS(=O)(=O)c4cccc(-c5ncccn5)c4)cc3OC)c2cc1OC` [Example A143, N-[4-(6,7-Dimethoxy-quinolin-4-yloxy)-3-methoxy-phenyl]-3-pyrimidin-2-yl-benzenesulfonamide] yielded a melting point of 135 to 137 °C. In addition, the IC50 in series [1] was more than 10 µM.

With `Cc1cc(Oc2ccc(NS(=O)(=O)c3ccccc3)cc2)c2cc(F)ccc2n1` [Example B9, N-[4-(6-Fluoro-2-methyl-quinolin-4-yloxy)-phenyl]-benzenesulfonamide], the melting point was 207 to 208 °C. Also, in series [1], the IC50 is more than 10 µM.

As for `COc1cc2c(Oc3ccc(NS(=O)(=O)c4ccccc4OC(F)(F)F)c(C)c3)ccnc2cc1OCCN1CCOCC1` [Example D08, N-{4-[6-Methoxy-7-(2-morpholin-4-yl-ethoxy)-quinolin-4-yloxy]-2-methyl-phenyl}-2-trifluoromethoxy-benzenesulfonamide], the melting point was 186 to 188 °C. In series [1], the IC50 worked out at 2.5 µM.

Compound `COc1cc2nccc(Oc3ccc(NS(=O)(=O)c4cccc(Oc5ccccc5)c4)cc3C)c2cc1OC` [Example A76, N-[4-(6,7-Dimethoxy-quinolin-4-yloxy)-3-methyl-phenyl]-3-phenoxy-benzenesulfonamide] registered a melting point of 115 to 117 °C. Further, the IC50 in series [1] is more than 10 µM.

Take `COc1cc2nccc(Oc3ccc(NS(=O)(=O)c4ccc5c(c4)CC(=O)N5C)cc3OC)c2cc1OC` [Example A145, 1-Methyl-2-oxo-2,3-dihydro-1H-indole-5-sulfonic acid [4-(6,7-dimethoxy-quinolin-4-yloxy)-3-methoxy-phenyl]-amide]: the melting point was 150 to 152 °C. The IC50 in series [1] is more than 10 µM.

Turning to `COc1ccc(S(=O)(=O)Nc2ccc(Oc3ccnc4cc(OC)c(OC)cc34)cc2)cc1Cl` [Example A67, 3-Chloro-N-[4-(6,7-dimethoxy-quinolin-4-yloxy)-phenyl]-4-methoxy-benzenesulfonamide], the melting point lay within 226 to 227 °C. Besides, in series [1], the IC50 is more than 10 µM.

Take `COc1ccc(S(=O)(=O)Nc2ccc(Oc3cc(C)nc4c(C(F)(F)F)cccc34)c(F)c2)c2ccccc12` [Example C08, 4-Methoxy-naphthalene-1-sulfonic acid [3-fluoro-4-(2-methyl-8-trifluoromethyl-quinolin-4-yloxy)-phenyl]-amide]: the melting point lay in the range of 242 to 244 °C. The IC50 in series [1] is more than 10 µM.

As to `COc1cc2nccc(Oc3ccc(NS(=O)(=O)c4ccc(C)c(F)c4)c(F)c3)c2cc1OC` [Example A6, N-[4-(6,7-Dimethoxy-quinolin-4-yloxy)-2-fluoro-phenyl]-3-fluoro-4-methyl-benzenesulfonamide], the melting point lay in the range of 211 to 212 °C. Besides, in series [1], the IC50 came out at 4.3 µM.

For the compound `COc1cc2nccc(Oc3ccc(NS(=O)(=O)c4ccc(Br)cc4OC(F)(F)F)cc3)c2cc1OC` [Example A149, 4-Bromo-N-[4-(6,7-dimethoxy-quinolin-4-yloxy)-phenyl]-2-trifluoromethoxy-benzenesulfonamide], the melting point was in the range of 237 to 239 °C. Further, in series [1], the IC50 is more than 3 µM.

Take `Cc1cc(Oc2ccc(NS(=O)(=O)c3ccc(OCc4c(C)noc4C)cc3)cc2F)c2cccc(C(F)(F)F)c2n1` [Example C14, 4-(3,5-Dimethyl-isoxazol-4-ylmethoxy)-N-[3-fluoro-4-(2-methyl-8-trifluoromethyl-quinolin-4-yloxy)-phenyl]-benzenesulfonamide]: the melting point fell in the range of 193 to 195 °C. In addition, in series [1], the IC50 is more than 10 µM.

For the compound `Cc1cc(Oc2ccc(NS(=O)(=O)c3c(Cl)cccc3Cl)c(F)c2)c2cccc(C(F)(F)F)c2n1` [Example C06, 2,6-Dichloro-N-[2-fluoro-4-(2-methyl-8-trifluoromethyl-quinolin-4-yloxy)-phenyl]-benzenesulfonamide], the melting point lay in the range of 171 to 173 °C. Further, the IC50 in series [1] was more than 10 µM.

Take `COc1cc2c(Oc3ccc(NS(=O)(=O)c4ccc(F)cc4F)cc3F)ccnc2cc1OCCCN1CCC(C)CC1` [Example D19, 2,4-Difluoro-N-(3-fluoro-4-{6-methoxy-7-[3-(4-methyl-piperidin-1-yl)-propoxy]-quinolin-4-yloxy}-phenyl)-benzenesulfonamide]: the melting point was 135 to 137 °C. In addition, the IC50 in series [1] came out at 0.128 µM.
